Assays:
Kunming mice [1] = conditions: positive control 35 mg/kg
Kunming mice [2] = conditions: positive control 35 mg/kg; remark: listed apart in the source
Salmonella strain TA100 = assay: Ames test, strain TA100; format: cell-based; conditions: Positive Control/plate, 2 ul
[3] = system: Salmonella strain TA102 base substitutive mutation strain; format: cell-based; conditions: Positive Control/plate
Experimental: To test mutagenicity of the content of GI Capsules, Ames tests were conducted on four Salmonella strains: TA97a, TA98 frameshift mutation strain, TA100, and TA102 base substitutive mutation strain. Ames (1983) Mutation Research 113:173-215. Five genetic characteristics of these four strains were determined to meet the requirement for the testing. The content of GI Capsules at five concentrations was tested: 5 mg/plate, 2.5 mg/plate, 1.0 mg/plate, 0.5 mg/plate, 0.1 mg/plate. The negative control was PBS. […]

[4] = system: Kunming mice constipated by diphenoxylate; assay: Laxative effects on mouse models for constipation (diphenoxylate); format: in vivo; conditions: Positive control group, diphenoxylate 50 mg/kg alone
Experimental: (§1) The content of GI Capsules was tested for laxative effects, i.e., the effects of the loosening the bowels to relieve constipation, on mouse models for constipation. Healthy Kunming mice were divided randomly into 5 groups, 20 in each group. […] The negative control group consists of 20 mice fed normally and the positive control group 20 mice fed with diphenoxylate at 50 mg/kg BW.
(§2) The test samples were diluted with distilled water into required concentrations and volume of 0.1 ml/10 g BW, and continuously administrated to the mice by oral gavage once a day for 14 days. The mice were fed with normal food during this period. On the last day of administration, mice were kept on fast for 24 hours overnight, but water was given. Then the content of GI Capsules were administered to mice in the three dosage groups by oral gavage. Twenty minutes later, diphenoxylate (50 mg/kg) was administered to all animals except those in the negative control group at the dosage of 0.1 ml/10 g. Ten minutes later, carbon ink (5% carbo activatus, 10% Arabic gum) was administered to all animals by oral gavage at the dosage of […]. All animals in each group were divided into two subgroups, 10 mice in each subgroup. One subgroup in each group was kept for observation of their dejection for 24 hours. The other was killed twenty minutes later and cut open the belly to measure the length of small intestine and the distance between pylorus and the front line of carbon ink to calculate carbon moving rates.

[5] = Body weight of mice in the laxative study; format: in vivo, mouse; conditions: Positive control group (diphenoxylate 50 mg/kg BW)
Experimental: as §1, §2

## O=P1(N(CCCl)CCCl)NCCCO1 (stereo not shown) [CP, cyclophosphamide]
Kunming mice [1]; female mice
  Micronucleus rate, Female: 21.2 ± 2.28 ‰
Kunming mice [1]; female mice, of 5000 PCE
  Micronucleus PCE, Female: 106
Kunming mice [1]; male mice
  Micronucleus rate, Male: 20.6 ± 2.41 ‰
Kunming mice [1]; male mice, of 5000 PCE
  Micronucleus PCE, Male: 103
Kunming mice [2]
  Aberration rate: 20.80 ± 0.98%
Kunming mice [2]; 10 mice, of 10000 sperm
  Aberrant sperm: 2080

## COS(C)(=O)=O [MMS]
Salmonella strain TA100
  Ames mutation data TA100 −S9: 1460.00
[3]; 2 ul
  Ames mutation data TA102 −S9: 2960.00

## Nc1ccc2cc3ccccc3cc2c1 [2-AA]
[3]; 12 ug
  Ames mutation data TA102 +S9: 1411.00

## CCOC(=O)C1(c2ccccc2)CCN(CCC(C#N)(c2ccccc2)c2ccccc2)CC1 [diphenoxylate]
[4]
  Carbon moving rate: 33.2 ± 10.5%
  First dejection time: 230.6 ± 56.0 min
[4]; 24 hours observation
  Total amounts of dejection: 1.0 ± 0.2 g
  Weight Dung grain: 16.4 ± 3.6 grain
[5]
  Weight 0th day: 19.5 ± 1.2
  Weight 7th day: 25.3 ± 0.9
  Weight 14th day: 29.2 ± 1.4
